From patent publication EP1561465A2, “Methods of use of fluoroquinolone compounds against bacteria” (LG Life Sciences, Ltd., priority 1999, dated 2001)
≈ marks a conversion by molar mass, not a printed value.

Experiments:
Format in all cases: cell-based
Streptococcus pyogenes = experiment: MIC by NCCLS reference broth microdilution, 450 respiratory tract pathogens; conditions: Streptococcus pyogenes
Staphylococcus aureus [1] = experiment: microbe, parasite or virus in culture
Moraxella catarrhalis = experiment: MIC by two-fold serial agar dilution, Sensitivity Disk agar-N (Kitasato isolates); conditions: Moraxella catarrhalis (22)
Staphylococcus aureus [2] = experiment: MIC by NCCLS reference broth microdilution, 450 respiratory tract pathogens
Enterococcus faecium = experiment: MIC by NCCLS broth microdilution, 1100 Japanese clinical isolates 1997-1998; conditions: for MIC: Enterococcus faecium
Proteus mirabilis = experiment: as above; conditions: Proteus mirabilis (n=30)
Klebsiella oxytoca = experiment: as above; conditions: Klebsiella oxytoca (n=40)
[3] = Streptococcus pyogenes (n = 100)
[4] = erythromycin resistant C phenotype [MLSB] (n = 20)
[5] = erythromycin resistant I phenotype [MLSB] (n = 20)
[6] = erythromycin resistant M phenotype (n = 20)
[7] = β-lactamase positive and erythromycin resistant (n = 10)

Which MIC (Streptococcus pyogenes; [3]) does the source give for `C[C@@H]1CN(c2c(F)c(N)c3c(=O)c(C(=O)O)cn(C4CC4)c3c2F)C[C@H](C)N1` [Sparfloxacin, sparfloxacin] here?
The MIC was 0.06 to 1 mg/L (≈ 0.153 to 2.55 µM).

And the MIC50 (Streptococcus pyogenes; [3])?
The MIC50 was 0.5 mg/L (≈ 1.27 µM).

And the MIC90 (Streptococcus pyogenes; [3])?
The MIC90 was 1 mg/L (≈ 2.55 µM).

And the MIC (Streptococcus pyogenes; [4])?
Its MIC is 0.25 to 1 mg/L (≈ 0.637 to 2.55 µM).

What about the MIC50 (Streptococcus pyogenes; [4]) of the same compound?
The MIC50 was 0.25 mg/L (≈ 0.637 µM).

What about the MIC90 (Streptococcus pyogenes; [4]) of the same compound?
Its MIC90 is 0.25 mg/L (≈ 0.637 µM).

What about the MIC (Streptococcus pyogenes; [5]) of the same compound?
The MIC was 0.06 to 1 mg/L (≈ 0.153 to 2.55 µM).

And the MIC50 (Streptococcus pyogenes; [5])?
Its MIC50 is 0.5 mg/L (≈ 1.27 µM).

What about the MIC90 (Streptococcus pyogenes; [5]) of the same compound?
Its MIC90 is 0.5 mg/L (≈ 1.27 µM).

And the MIC (Streptococcus pyogenes; [6])?
Its MIC is 0.25 to 1 mg/L (≈ 0.637 to 2.55 µM).

And the MIC50 (Streptococcus pyogenes; [6])?
Its MIC50 is 0.5 mg/L (≈ 1.27 µM).

And the MIC90 (Streptococcus pyogenes; [6])?
The MIC90 was 0.5 mg/L (≈ 1.27 µM).

What about the MIC (Streptococcus pyogenes; fully susceptible (n = 20)) of the same compound?
The MIC was 0.25 to 1 mg/L (≈ 0.637 to 2.55 µM).

And the MIC50 (Streptococcus pyogenes; fully susceptible (n = 20))?
The MIC50 was 0.5 mg/L (≈ 1.27 µM).

What about the MIC90 (Streptococcus pyogenes; fully susceptible (n = 20)) of the same compound?
Its MIC90 is 1 mg/L (≈ 2.55 µM).

And the MIC (Streptococcus pyogenes; multi-drug resistant (n = 20))?
Its MIC is 0.25 to 1 mg/L (≈ 0.637 to 2.55 µM).

And the MIC50 (Streptococcus pyogenes; multi-drug resistant (n = 20))?
Its MIC50 is 1 mg/L (≈ 2.55 µM).

And the MIC90 (Streptococcus pyogenes; multi-drug resistant (n = 20))?
Its MIC90 is 1 mg/L (≈ 2.55 µM).

What about the “MIC Range” value (Staphylococcus aureus [1]; Methicillin-resistant (38)) of the same compound?
Its value is 0.063 to 64 mg/L.

And the “MIC Range” value (Staphylococcus aureus [1]; Methicillin-susceptible (9))?
The value was 0.063 to 0.5 mg/L.

What about the MIC50 (Staphylococcus aureus [1]; Staphylococcus aureus, Methicillin-resistant (38)) of the same compound?
The MIC50 was 2 mg/L (≈ 5.1 µM).

What about the MIC90 (Staphylococcus aureus [1]; Staphylococcus aureus, Methicillin-resistant (38), read-out: MIC90) of the same compound?
The MIC90 was 64 mg/L (≈ 163 µM).

What about the MIC50 (Staphylococcus aureus [1]; Staphylococcus aureus, Methicillin-susceptible (9)) of the same compound?
Its MIC50 is 0.125 mg/L (≈ 0.319 µM).

What about the MIC (Staphylococcus aureus [1]; Staphylococcus aureus, S. aureus KU2240, mutant type Wild (wild strain)) of the same compound?
Its MIC is 0.25 mg/L (≈ 0.637 µM).

And the MIC (Staphylococcus aureus [1]; Staphylococcus aureus, S. aureus KU2241, mutant type NorA (efflux-mediated quinolone resistant))?
The MIC was 0.25 mg/L (≈ 0.637 µM).

And the MIC (Staphylococcus aureus [1]; Staphylococcus aureus, S. aureus KU2242, mutant type T (DNA topoisomerase IV))?
Its MIC is 0.25 mg/L (≈ 0.637 µM).

And the MIC (Staphylococcus aureus [1]; Staphylococcus aureus, S. aureus KU2243, mutant type G+T (DNA gyrase and topoisomerase IV))?
The MIC was 64 mg/L (≈ 163 µM).

And the MIC (Staphylococcus aureus [1]; Staphylococcus aureus, S. aureus KU2244, mutant type G (DNA gyrase))?
Its MIC is 0.25 mg/L (≈ 0.637 µM).

And the MIC (Staphylococcus aureus [1]; Staphylococcus aureus, S. aureus KU2245, mutant type G+T (DNA gyrase and topoisomerase IV))?
Its MIC is 64 mg/L (≈ 163 µM).

And the MIC (Staphylococcus aureus [1]; Staphylococcus aureus, S. aureus KU2246, mutant type T (DNA topoisomerase IV))?
The MIC was 0.25 mg/L (≈ 0.637 µM).

What about the MIC50 (Moraxella catarrhalis) of the same compound?
The MIC50 was 0.016 mg/L (≈ 0.0408 µM).

And the MIC90 (Moraxella catarrhalis)?
The MIC90 was 0.031 mg/L (≈ 0.079 µM).

And the “MIC Range” value (Moraxella catarrhalis)?
The value was 0.016 to 0.031 mg/L.

And the MIC (Staphylococcus aureus [2]; Staphylococcus aureus (n = 50))?
The MIC was 0.06 to 1 mg/L (≈ 0.153 to 2.55 µM).

What about the MIC50 (Staphylococcus aureus [2]; Staphylococcus aureus (n = 50)) of the same compound?
Its MIC50 is 0.5 mg/L (≈ 1.27 µM).

And the MIC90 (Staphylococcus aureus [2]; Staphylococcus aureus (n = 50))?
The MIC90 was 0.5 mg/L (≈ 1.27 µM).

What about the MIC (Staphylococcus aureus [2]; β-lactamase negative (n = 20)) of the same compound?
The MIC was 0.06 to 1 mg/L (≈ 0.153 to 2.55 µM).

And the MIC50 (Staphylococcus aureus [2]; β-lactamase negative (n = 20))?
Its MIC50 is 0.5 mg/L (≈ 1.27 µM).

What about the MIC90 (Staphylococcus aureus [2]; β-lactamase negative (n = 20)) of the same compound?
Its MIC90 is 0.5 mg/L (≈ 1.27 µM).

What about the MIC (Staphylococcus aureus [2]; β-lactamase positive (n = 20)) of the same compound?
Its MIC is 0.12 to 1 mg/L (≈ 0.306 to 2.55 µM).

And the MIC50 (Staphylococcus aureus [2]; β-lactamase positive (n = 20))?
Its MIC50 is 0.5 mg/L (≈ 1.27 µM).

And the MIC90 (Staphylococcus aureus [2]; β-lactamase positive (n = 20))?
The MIC90 was 0.5 mg/L (≈ 1.27 µM).

What about the MIC (Staphylococcus aureus [2]; [7]) of the same compound?
The MIC was 0.25 to 1 mg/L (≈ 0.637 to 2.55 µM).

And the MIC50 (Staphylococcus aureus [2]; [7])?
Its MIC50 is 0.25 mg/L (≈ 0.637 µM).

What about the MIC90 (Staphylococcus aureus [2]; [7]) of the same compound?
Its MIC90 is 0.5 mg/L (≈ 1.27 µM).

And the MIC50 (Enterococcus faecium; Enterococcus faecium (n=39))?
Its MIC50 is 32 mg/L (≈ 81.5 µM).

And the MIC90 (Enterococcus faecium; Enterococcus faecium (n=39))?
Its MIC90 is 64 mg/L (≈ 163 µM).

What about the “MIC Range” value (Enterococcus faecium; Enterococcus faecium (n=39)) of the same compound?
Its value is 0.5 to 128 mg/L.

And the MIC (Enterococcus faecium; Enterococcus faecium (vanA) vancomycin resistant, strain TMS1)?
The MIC was 32 mg/L (≈ 81.5 µM).

What about the MIC (Enterococcus faecium; Enterococcus faecium (vanA) vancomycin resistant, strain TMS2) of the same compound?
The MIC was 0.5 mg/L (≈ 1.27 µM).

What about the MIC (Enterococcus faecium; Enterococcus faecium (vanA) vancomycin resistant, strain TMS3) of the same compound?
The MIC was 64 mg/L (≈ 163 µM).

And the MIC (Enterococcus faecium; Enterococcus faecium (vanA) vancomycin resistant, strain TMS4)?
Its MIC is 64 mg/L (≈ 163 µM).

What about the MIC (Enterococcus faecium; Enterococcus faecium (vanA) vancomycin resistant, strain TMS5) of the same compound?
Its MIC is 2 mg/L (≈ 5.1 µM).

And the MIC (Enterococcus faecium; Enterococcus laecium (van B) vancomycin resistant, strain TMS6)?
The MIC was 64 mg/L (≈ 163 µM).

And the MIC (Enterococcus faecium; Enterococcus laecium (van B) vancomycin resistant, strain TMS7)?
Its MIC is 32 mg/L (≈ 81.5 µM).

What about the “MIC Range” value (Proteus mirabilis) of the same compound?
Its value is 0.063 to 16 mg/L.

And the MIC50 (Proteus mirabilis; read-out: MIC50)?
Its MIC50 is 0.25 mg/L (≈ 0.637 µM).

What about the MIC90 (Proteus mirabilis; read-out: MIC90) of the same compound?
Its MIC90 is 0.5 mg/L (≈ 1.27 µM).

And the MIC50 (Klebsiella oxytoca)?
The MIC50 was 0.063 mg/L (≈ 0.161 µM).

And the MIC90 (Klebsiella oxytoca)?
The MIC90 was 8 mg/L (≈ 20.4 µM).

And the “MIC Range” value (Klebsiella oxytoca)?
The value was 0.016 to 32 mg/L.
